In patent US11992011B2, “Compounds for controlling plant pathogens” (VIB VZW, priority 2017, dated 2024):

Assays:
[1] = tested on: Meloidogyne incognita; test: M. incognita infection in DIECA-treated tomato (Example 18); assay type: in vivo; conditions: PA together with DIECA
Procedure: Infection experiments with M. incognita were performed in the same manner as those with M. graminicola, except that plants were harvested 31 days after inoculation instead of 14 days. At this point, the plants were phenotyped by measuring the root length with a ruler and in some experiments by measuring leaf area using the EasyLeafArea software (Easlon and Bloom, 2014) and by determining shoot dry mass after 72 hours of drying in an oven at 70° C. Galls were stained and counted as described above.
To determine whether C4H inhibitors depend on this hormonal pathway, it was tested whether tomato plants treated with the chemical inhibitor of jasmonic acid biosynthesis diethyldithiocarbamate (DIECA) (Farmer et al., 1994) still responded to PA treatment.

[2] = tested on: J2 juveniles of Meloidogyne graminicola; test: In vitro nematode toxicity assay, M. graminicola J2 (Example 11); conditions: Vertimec 0.02 v/v % abamectin
Procedure: J2 juveniles of Meloidogyne graminicola and Heterodera schachtii were isolated from Echinocloa cruss-galli roots and sugar beet roots respectively. Per treatment and species combination, 300 nematodes were isolated and divided over six wells that contained 1.5 ml of either sterilized tap water, a 100 μM C4H inhibitor solution or a 0.02 v/v % solution of the nematicide abamectin (Vertimec®, Syngenta AG). The nematodes were incubated in the dark on a slow-moving rotary shaker (50 rpm) and the number of living nematodes was counted regularly using a binocular microscope.
To rule out definitively that the compounds of the invention operate through direct toxicity to nematodes, an in vitro toxicity assay on J2 juveniles of the nematodes Meloidogyne graminicola and Heterodera schachtii was performed.
First, survival upon exposure to the C4H inhibitor piperonylic acid (PA) was compared to a negative control (tap water) and a positive control, the commercial nematicide Vertimec (0.02% Abamectin). A detailed survival curve is shown in FIG. 12a (M. graminicola) and FIG. 12b (H. schachtii).
In a second experiment, a broader range of C4H inhibitors were assayed in the same manner. The toxicity of piperonylic acid (PA), piperine (PIP), 4-propynyloxybenzoic acid (4PB), and 3-(4-pyridyl)acrylic acid (3PA) to J2 juveniles of Meloidogyne graminicola was compared to a negative control (tap water) and a true nematicide (Vertimec, active ingredient abamectin).

[3] = tested on: Meloidogyne graminicola; test: Application regimens of PA, rice - Meloidogyne graminicola (Example 8); assay type: in vivo
Procedure: Seed coatings were applied by dipping seeds in a coating solution containing 20 g/I high viscosity carboxymethylcellulose (Sigma-Aldrich, Saint Louis, USA) in distilled water as well as 300 μM of the target compound. Seeds were then dried overnight at room temperature.
Infection experiments with M. graminicola were performed by inoculating host plants 14 days after transfer to SAP by introducing the desired amount of J2 juveniles next to the root system using a micro pipette. Rice plants (cv. Nipponbare or Kitaake) were inoculated with 250 J2 juveniles per plant; wheat plants (cv. Sahara) were inoculated with 600 J2 juveniles per plant. Plants were harvested 14 days after inoculation. At this point, the plants were phenotyped by measuring the shoot and root length with a ruler, counting the number of adventitious roots and in some experiments by measuring leaf area using the EasyLeafArea software (Easlon and Bloom, 2014) and by determining shoot dry mass after 72 hours of drying in an oven at 70° C. Root systems were then stained in acid fuchsine as described in (Byrd et al., 1983) and left to destain in glycerol with 1 ml/l fuming HCl added for approximately ten days. The number of galls and nematodes was then counted using a binocular microscope.
Four application regimes for PA on the rice-Meloidogyne graminicola interaction were compared: a seed coating treatment, a single high-dose foliar spray prior to infection, a single high-dose foliar spray after infection and repeated lower-dose foliar sprays throughout the growing period.
One hundred rice seeds (cv. Nipponbare) were randomly divided into five groups of twenty seeds: a control group, seeds that were coated with carboxymethylcellulose containing 300 μM PA (PA coating), a group that would be foliarly sprayed with 100 μM PA solution three times per week (PA continuous), a group that would be sprayed once with a 300 μM PA solution one day prior to nematode inoculation (PA−1 dpi) and a group that would be sprayed once with a 300 μM PA solution seven days after nematode inoculation (PA+7 dpi).
The experiment was carried out as per the materials and methods described in Materials and Methods, sections Oryza sativa (rice) and Meloidogyne graminicola culture.

[4] = tested on: OsGNS5; test: qRT-PCR in rice roots, OsGNS5 (Example 20); assay type: in vivo, Oryza sativa; conditions: rice cv. Bomba root tissue; same samples as Example 19
Procedure: After quality control, qPCR was carried out.
To test whether other defense hormones might be involved, genes responsive to jasmonic acid (the biosynthesis gene OsAOS2) and auxin (the auxin conjugating enzyme OsGH3.1) were investigated. Moreover, the callose-degrading enzyme OsGNS5, downregulation of which is associated with basal defense, was also investigated. The qRT-PCR analysis was performed on the same samples used in the previous Example.

[5] = tested on: spring wheat (Triticum aestivum cv. Fielder); test: Yield and fertility in pathogen-free spring wheat (Example 2); conditions: 300 μM foliar spray three times; vs. control
Procedure: For Example 2, the spring wheat cultivar Fielder was used. Seeds were obtained from plants grown in the greenhouse complex of the VIB (Zwijnaarde, Belgium). Seeds were sown directly in potting soil (four seeds to a pot, thinned to three plants per pot after emergence) and placed in a growth chamber at 21° C. with 16 hours per day of light. These plants were grown until harvest; they were sprayed three times with the compounds of the invention at a concentration of 300 μM using the protocol described in the chemicals section. Spraying took place 14 and 21 days after emergence and a final time at heading.
In all cases model assumptions were verified using diagnostic plots (residuals, QQ-plot, scale-location and residuals-leverage). Outliers were removed only if they were outliers both in the statistical sense and if there was a biological reason for removal (e.g. the plant was stunted or developed a secondary infection).
To determine the effects of C4H inhibition on yield and fertility, spring wheat (Triticum aestivum cv. Fielder) was grown in a pathogen-free growth chamber until maturity and treated with a control or C4H inhibitor-containing foliar spray at regular intervals. At harvest, the number of ears per plant, the seed mass, the size of the seeds and the germination ability of the freshly harvested seeds were measured. Seed size was measured using the stacking density of the seed as a proxy measure; if a given seed mass takes up a greater volume, then the individual seeds must be larger.

[6] = tested on: Arabidopsis thaliana seedlings; test: Primary root elongation of Arabidopsis thaliana seedlings (IC50-root); assay type: in vivo; conditions: continuous exposure, unpublished data
[7] = PA +7 dpi: sprayed once with 300 μM PA seven days after inoculation, n = 8
[8] = PA coating: seeds coated with carboxymethylcellulose solution containing 300 μM PA, n = 7
[9] = PA continuous: sprayed three times a week with 100 μM PA, n = 9
[10] = PA −1 dpi: sprayed once with 300 μM PA one day before inoculation, n = 8

O=C(O)c1ccc2c(c1)OCO2 [PA, Piperonylic acid]
change of number of galls, plants treated with both PA and DIECA vs untreated wild type plants [1]: −31% | difference in number of galls, plants treated with both PA and DIECA vs PA-treated wild type plants ([1]; not significant): +14% | survival after 24 hours of exposure ([2]; PA 100 μM, control 94.2±2.4): 97.1±1.8% | survival at the end of the experiment ([2]; second experiment, C4H inhibitor 100 μM, water control 93%): 95% | Fraction of small galls [3, 7]: 0.91 ± 0.11 | Number of galls [3, 7]: 18.1 ± 13.6 | Number of galls per AR [3, 7]: 1.1 ± 0.6 | Fraction of small galls [3, 8]: 0.96 ± 0.04 | Number of galls [3, 8]: 19.0 ± 11.0 | Number of galls per AR [3, 8]: 1.3 ± 0.8 | Fraction of small galls [3, 9]: 0.95 ± 0.08 | Number of galls [3, 9]: 18.1 ± 13.1 | Number of galls per AR [3, 9]: 1.2 ± 0.7 | mortality of seedlings from seeds coated with PA ([3]; PA seed coating, two out of ten in the control group, not statistically significant): four of ten | Fraction of small galls [3, 10]: 0.91 ± 0.06 | Number of galls [3, 10]: 25.3 ± 9.4 | Number of galls per AR [3, 10]: 1.4 ± 0.5 | Fold change vs. control, OsGNS5 expression [4]: 0.41 | Total yield (seed mass) [5]: not significantly different | germination after fourteen days of freshly harvested seeds [5]: not significantly different | mean number of ears per plant [5]: the same in all treatments | seed size (stacking density) [5]: no effect | IC50 [6]: 40 µM
